Assays:
[1] = test system: doxorubicin-induced apoptosis in the liver; experiment: Doxorubicin-induced apoptosis in rat liver (TUNEL staining, stereological disector); type: in vivo
Source text: (§1) Apoptosis is a significant component of cell death in optic and/or eye diseases including (i) all forms of primary and secondary glaucoma, preferably such as e.g. primary open-angle glaucoma, normal-tension glaucoma, primary angle-closure glaucoma, pseudoexfoliation syndrome and glaucoma, pigment dispersion syndrome and glaucoma, neovascular glaucoma, inflammatory glaucoma, lens-related glaucoma, traumatic glaucoma, primary congenital glaucoma, iatrogenic induced glaucoma, and malignant glaucoma (R. Agarwal, S. K. Gupta, P. Agarwal, R. Saxena & S. S. Agrawal (2009) Indian J. Ophthalmol. 57, 257-266); (ii) aquired macular disorders, preferably such as e.g. age-related macular degeneration, idiopathic choroidal neovascularisation, central serous chorioretinopathy, vitreomacular interface disorders, idiopathic macular telangiectasia, cystoid macular oedema, and microcystic macular oedema (J. L. Dunaief, T. Dentchev, G.-S. Ying & A. H. Milam (2002) Arch. Ophthalmol. 120, 1435-1442); (iii) optic neuropathy, preferably such as e.g. anterior or posterior ischemic optic neuropathy (B. J. Slater, Z. Mehrabian, Y. Guo, A. Hunter & S. L. Bernstein (2008) Invest. Ophthalmol. Vis. Sci. 49, 3671-3676); (iv) optic neuritis (K. S. Shindler, E. Ventura, M. Dutt & A. Rostami (2008) Exp.Eye Res. 87, 208-213); (v) uveitis, preferably such as e.g. anterior uveitis, intermediate uveitis, posterior uveitis, and panuveitis (C.-C. Chan, D. M. Matteson, Q. Li, S. M. Whitcup & R. B. Nussenblatt (1997) Arch. Ophthalmol. 115, 1559-1567); (vi) hereditary fundus dystrophies, preferably such as e.g. retinitis pigmentosa, cone dystrophy, cone-rod dystrophy, rod dystrophy, Stargardt's disease, Bietti's crystalline corneoretinal dystrophy, familial benign fleck retina, Best vitelliform macular dystrophy, adult-onset vitelliform macular dystrophy, North Carolina macular dystrophy, familial dominant drusen, and concentric annular macular dystrophy (H. Zhang, X. Li, X. Dai, J. Han, Y. Zhang, Y. Qi, Y. He, Y. Liu, B. Chang & J. J. Pang (2017) J. Ophthalmol. 2017, 1-13 9721362); (vii) retinal vascular diseases, preferably such as e.g. diabetic retinopathy, non-diabetic retinopathy, retinal venous occlusive disease, retinal arterial occlusive disease, ocular ischemic syndrome, hypertensive eye disease, sickle cell retinopathy, thalassemia retinopathy, retinopathy of prematurity, retinal artery macroaneurysm, primary retinal telangiectasia, Eales disease, and radiation retinopathy (G. Donati, A. Kapetanios, M. Dubois-Dauphin & C. J. Pournaras (2008) Acta Ophthalmol. 86, 302-306); (viii) scleritis or episcleritis (C. Heinz, N. Bograd, J. Koch & A. Heiligenhaus (2013) Graefes Arch. Clin. Exp. Ophthalmol. 251, 139-142); (ix) retinal detachments (J. G. Arroyo, L. Yang, D. Bula & D. F. Chen (2005) Am. […]

[2] = test system: doxorubicin-induced apoptosis in retinal ganglion cells; experiment: Doxorubicin-induced apoptosis in rat retinal ganglion cells (intravitreal doxorubicin, TUNEL staining, stereological disector); type: in vivo
Source text: as §1

[3] = 60 mg/kg/d s.c., result in words
[4] = vs doxorubicin + vehicle, 60 mg/kg/d s.c.

O=C(O)CN1C(=O)[C@@H](NC(=O)C2(C[C@@H](CCc3ccccc3)C(=O)O)CCCC2)CCc2ccccc21 [Example (6), (2R)-2-{[1-({[(3S)-1-(carboxymethyl)-2-oxo-2,3,4,5-tetrahydro-1H-1-benzazepin-3-yl]amino}carbonyl)cyclopentyl]methyl}-4-phenylbutanoic acid]
Protection against doxorubicin induced apoptosis in the liver (reduction of Nv of TUNEL positive cells vs vehicle) [1, 3]: significant protection
Nv, number of TUNEL positive cells, liver ([1]; Wistar rats, 60 mg/kg/d s.c. osmotic minipump, doxorubicin 5 mg/kg i.p. t.i.d. days 1-3, 5 days after first injection, mean ± SEM): 7.93 ± 0.25 TUNEL positive cells×10^2/mm^3
Nv as % of doxorubicin + vehicle, liver ([1]; Wistar rats, 60 mg/kg/d s.c. osmotic minipump, doxorubicin 5 mg/kg i.p. t.i.d. days 1-3, day 5): 76.54%
Decrease of density of apoptotic cells in the rat liver [1, 4]: 23.46%
Protection against doxorubicin induced apoptosis in the retina (reduction of Nv of TUNEL positive cells vs vehicle) [2, 3]: significant protection
Nv, number of TUNEL positive cells, retinal ganglion cells (RGC) ([2]; Wistar rats, 60 mg/kg/d s.c. osmotic minipump, doxorubicin 5 μg into vitreous body day 1, 5 days after, mean ± SEM): 33.64 ± 0.96 TUNEL positive cells×10^3/mm^3
Nv as % of doxorubicin + vehicle, RGC ([2]; Wistar rats, 60 mg/kg/d s.c. osmotic minipump, doxorubicin 5 μg into vitreous body day 1, day 5): 91.79%
Decrease of density of apoptotic cells in the retina [2, 4]: 8.21%
